Data published in ChEMBL document CHEMBL5150077, “Identification of TUL01101: A Novel Potent and Selective JAK1 Inhibitor for the Treatment of Rheumatoid Arthritis” (J Med Chem, 2022).
Activity calls are given as the source filed them. The rule behind the calls is not given here.

Tests used:
Mus musculus [1] = assay: Antiarthritic activity in collagen-induced rheumatoid arthritis DBA/1 mouse model assessed as reduction in clinical score AUC at 15 mg/kg, po BID administered for 14 days starting from 7 days before immunization to 21 days after immunization and measured on day 41 post immunization; type: functional, organism-based; conditions: time 14.0 day
[2] = AUC in C57BL/6 mouse at 15 mg/kg, po measured for 24 hrs by LC/MS/MS analysis; type: ADME, organism-based; parameters: dose 15 mg/kg, time 24 hrs, route po; conditions: in vivo
Mus musculus [3] = assay: Antiarthritic activity in collagen-induced rheumatoid arthritis DBA/1 mouse model assessed as reduction in incidence rate at 15 mg/kg, po BID administered for 14 days starting from 7 days before immunization to 21 days after immunization and measured on day 41 post immunization; type: functional; parameters: scale not given: the % may be the effect or the level left; conditions: time 14 day
[4] = molecular target: Mitogen-activated protein kinase 8 (Homo sapiens) (UniProt P45983); assay: Inhibition of human JNK1-alpha1 assessed as residual activity at 30 uM relative to control
[5] = Toxicity in rat assessed as reduction in food intake at 10 mg/kg/day, po administered via gavage once a day pretreated for 9 weeks prior to co-cage and measured on day 84; type: organism-based; parameters: scale not given: the % may be the effect or the level left; conditions: in vivo, 2016 h, time 84 day
[6] = molecular target: Tyrosine-protein kinase Blk (Homo sapiens) (UniProt P51451); assay: Inhibition of human BLK assessed as residual activity at 30 uM relative to control
[7] = molecular target: Tyrosine-protein kinase SYK (Homo sapiens) (UniProt P43405); assay: Inhibition of human SYK assessed as residual activity at 30 uM relative to control
[8] = molecular target: Vascular endothelial growth factor receptor 2 (Homo sapiens) (UniProt P35968); assay: Inhibition of human KDR assessed as residual activity at 30 uM relative to control
Sequence of Vascular endothelial growth factor receptor 2 (Homo sapiens) (P35968 whole entry): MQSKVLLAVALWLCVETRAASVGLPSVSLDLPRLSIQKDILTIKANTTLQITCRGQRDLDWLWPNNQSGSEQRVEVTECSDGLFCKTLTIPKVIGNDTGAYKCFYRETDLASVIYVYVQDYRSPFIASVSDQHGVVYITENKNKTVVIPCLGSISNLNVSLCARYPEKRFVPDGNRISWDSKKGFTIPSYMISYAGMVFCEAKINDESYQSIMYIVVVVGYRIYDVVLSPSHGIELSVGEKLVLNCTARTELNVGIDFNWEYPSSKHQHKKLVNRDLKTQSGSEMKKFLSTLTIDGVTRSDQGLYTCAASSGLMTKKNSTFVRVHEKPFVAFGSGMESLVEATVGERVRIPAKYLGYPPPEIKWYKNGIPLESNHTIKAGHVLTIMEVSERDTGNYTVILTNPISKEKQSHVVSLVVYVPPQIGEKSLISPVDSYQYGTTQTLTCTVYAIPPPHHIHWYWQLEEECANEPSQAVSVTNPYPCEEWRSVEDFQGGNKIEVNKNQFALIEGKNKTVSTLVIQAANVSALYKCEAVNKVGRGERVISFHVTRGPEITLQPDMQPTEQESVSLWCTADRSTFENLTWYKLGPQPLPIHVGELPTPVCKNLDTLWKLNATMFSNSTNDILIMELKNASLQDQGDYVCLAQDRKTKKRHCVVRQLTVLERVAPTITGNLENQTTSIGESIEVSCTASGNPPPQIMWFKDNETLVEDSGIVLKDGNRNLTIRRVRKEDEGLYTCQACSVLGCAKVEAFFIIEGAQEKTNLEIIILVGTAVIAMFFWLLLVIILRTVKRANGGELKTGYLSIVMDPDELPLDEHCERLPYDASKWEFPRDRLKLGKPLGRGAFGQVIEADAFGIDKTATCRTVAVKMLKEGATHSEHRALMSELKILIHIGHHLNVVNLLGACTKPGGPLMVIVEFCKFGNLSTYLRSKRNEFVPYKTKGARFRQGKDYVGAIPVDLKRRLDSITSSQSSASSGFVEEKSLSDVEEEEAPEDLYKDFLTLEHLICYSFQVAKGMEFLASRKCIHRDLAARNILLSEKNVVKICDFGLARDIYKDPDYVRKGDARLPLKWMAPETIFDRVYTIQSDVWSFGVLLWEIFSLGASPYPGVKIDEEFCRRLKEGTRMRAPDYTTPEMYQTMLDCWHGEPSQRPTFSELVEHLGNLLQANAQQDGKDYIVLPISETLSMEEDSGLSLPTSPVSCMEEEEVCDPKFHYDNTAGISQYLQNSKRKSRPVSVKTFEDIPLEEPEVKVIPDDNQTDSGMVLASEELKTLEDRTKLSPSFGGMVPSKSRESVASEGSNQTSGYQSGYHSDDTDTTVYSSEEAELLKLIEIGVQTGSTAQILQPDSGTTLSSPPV

[9] = Toxicity in rat assessed as reduction in body weight at 10 mg/kg/day, po administered via gavage once a day pretreated for 9 weeks prior to co-cage and measured on day 84 relative to control; type: organism-based; parameters: scale not given: the % may be the effect or the level left; conditions: in vivo, 2016 h, time 84 day
[10] = Clearance in beagle dog at 0.2 mg/kg, iv measured for 24 hrs by LC-MS/MS analysis; type: ADME, organism-based, Canis lupus familiaris; conditions: in vivo
[11] = molecular target: Ephrin type-A receptor 2 (Homo sapiens) (UniProt P29317); assay: Inhibition of human EPHA2 assessed as residual activity at 30 uM relative to control
[12] = molecular target: Epidermal growth factor receptor (Homo sapiens) (UniProt P00533); assay: Inhibition of human EGFR assessed as residual activity at 30 uM relative to control
Sequence of Epidermal growth factor receptor (Homo sapiens) (P00533 whole entry): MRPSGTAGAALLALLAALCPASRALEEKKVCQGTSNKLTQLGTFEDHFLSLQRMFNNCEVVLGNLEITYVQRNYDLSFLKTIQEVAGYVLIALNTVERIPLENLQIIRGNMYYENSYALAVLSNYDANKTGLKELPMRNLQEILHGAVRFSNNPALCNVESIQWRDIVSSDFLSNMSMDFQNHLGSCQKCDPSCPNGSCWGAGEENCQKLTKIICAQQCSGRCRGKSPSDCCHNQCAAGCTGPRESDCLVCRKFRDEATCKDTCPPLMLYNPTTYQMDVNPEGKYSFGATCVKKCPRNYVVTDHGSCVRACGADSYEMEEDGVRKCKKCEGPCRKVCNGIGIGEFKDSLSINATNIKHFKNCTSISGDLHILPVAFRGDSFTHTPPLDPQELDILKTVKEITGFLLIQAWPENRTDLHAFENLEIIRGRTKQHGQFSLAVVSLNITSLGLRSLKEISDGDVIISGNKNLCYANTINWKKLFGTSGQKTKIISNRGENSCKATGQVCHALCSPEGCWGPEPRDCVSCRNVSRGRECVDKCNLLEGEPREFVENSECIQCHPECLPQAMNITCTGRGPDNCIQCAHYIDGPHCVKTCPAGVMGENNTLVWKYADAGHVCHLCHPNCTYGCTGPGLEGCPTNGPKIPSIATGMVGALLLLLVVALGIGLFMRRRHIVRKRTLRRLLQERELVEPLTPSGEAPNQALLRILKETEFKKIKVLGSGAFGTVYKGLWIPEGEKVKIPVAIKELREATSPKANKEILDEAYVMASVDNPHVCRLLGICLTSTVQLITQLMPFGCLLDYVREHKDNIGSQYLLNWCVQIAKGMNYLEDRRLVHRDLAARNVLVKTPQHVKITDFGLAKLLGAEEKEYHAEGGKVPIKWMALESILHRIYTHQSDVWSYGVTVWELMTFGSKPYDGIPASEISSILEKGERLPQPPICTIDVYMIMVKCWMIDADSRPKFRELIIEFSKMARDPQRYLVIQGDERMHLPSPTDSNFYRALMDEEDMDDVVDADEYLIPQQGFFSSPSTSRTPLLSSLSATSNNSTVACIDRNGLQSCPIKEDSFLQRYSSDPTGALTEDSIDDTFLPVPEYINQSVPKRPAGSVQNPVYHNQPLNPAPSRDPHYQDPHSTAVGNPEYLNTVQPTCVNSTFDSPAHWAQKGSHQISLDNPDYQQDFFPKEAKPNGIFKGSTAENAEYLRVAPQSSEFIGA

[13] = molecular target: Glycogen synthase kinase-3 beta (Homo sapiens) (UniProt P49841); assay: Inhibition of human GSK3beta assessed as residual activity at 30 uM relative to control
Mus musculus [14] = assay: Antiarthritic activity in collagen-induced rheumatoid arthritis DBA/1 mouse model assessed as inhibition rate at 15 mg/kg, po BID administered for 14 days starting from 7 days before immunization to 21 days after immunization and measured on day 41 post immunization; type: functional; conditions: DBA/1, 336 h, time 14 day
[15] = molecular target: Dual specificity tyrosine-phosphorylation-regulated kinase 3 (Homo sapiens) (UniProt O43781); assay: Inhibition of human DYRK3 assessed as residual activity at 30 uM relative to control
[16] = molecular target: ALK tyrosine kinase receptor (Homo sapiens) (UniProt Q9UM73); assay: Inhibition of human ALK assessed as residual activity at 30 uM relative to control
[17] = molecular target: Serine/threonine-protein kinase PAK 2 (Homo sapiens) (UniProt Q13177); assay: Inhibition of human PAK2 assessed as residual activity at 30 uM relative to control
[18] = molecular target: High affinity nerve growth factor receptor (Homo sapiens) (UniProt P04629); assay: Inhibition of human TRK assessed as residual activity at 30 uM relative to control
Sequence of High affinity nerve growth factor receptor (Homo sapiens) (P04629 33-796 limits assumed): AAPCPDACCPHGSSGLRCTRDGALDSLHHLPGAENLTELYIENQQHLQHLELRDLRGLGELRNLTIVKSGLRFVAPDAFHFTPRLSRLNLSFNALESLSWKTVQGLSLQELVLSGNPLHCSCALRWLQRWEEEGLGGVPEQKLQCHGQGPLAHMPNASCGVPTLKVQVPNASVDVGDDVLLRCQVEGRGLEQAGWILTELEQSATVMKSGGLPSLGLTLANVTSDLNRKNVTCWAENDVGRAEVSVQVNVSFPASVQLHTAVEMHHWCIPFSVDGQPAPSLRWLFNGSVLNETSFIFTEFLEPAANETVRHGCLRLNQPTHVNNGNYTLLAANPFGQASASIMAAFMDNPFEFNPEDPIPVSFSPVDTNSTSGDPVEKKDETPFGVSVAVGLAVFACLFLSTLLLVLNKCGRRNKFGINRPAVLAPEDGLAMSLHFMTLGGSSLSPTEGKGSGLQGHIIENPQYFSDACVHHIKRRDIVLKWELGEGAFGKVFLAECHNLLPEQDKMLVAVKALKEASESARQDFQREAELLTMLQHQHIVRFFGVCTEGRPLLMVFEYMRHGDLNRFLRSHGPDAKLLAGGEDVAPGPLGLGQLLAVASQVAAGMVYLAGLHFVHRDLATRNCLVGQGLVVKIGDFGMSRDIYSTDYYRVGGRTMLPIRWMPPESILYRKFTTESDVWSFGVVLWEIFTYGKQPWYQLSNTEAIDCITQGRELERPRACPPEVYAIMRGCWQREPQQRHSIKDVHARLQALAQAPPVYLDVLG

Homo sapiens = organism: Homo sapiens; assay: Inhibition of human CDK1/Cyclin B assessed as residual activity at 30 uM relative to control
[19] = molecular target: Platelet-derived growth factor receptor alpha (Homo sapiens) (UniProt P16234); assay: Inhibition of human PDGFRalpha assessed as residual activity at 30 uM relative to control
[20] = molecular target: 5'-AMP-activated protein kinase catalytic subunit alpha-1 (Homo sapiens) (UniProt Q13131); assay: Inhibition of human AMPKalpha1 assessed as residual activity at 30 uM relative to control
in vivo [21] = conditions: Sprague-Dawley, rat, po, 10 mg/kg
in vivo [22] = conditions: Sprague-Dawley, rat, po, 10 mg/kg; remark: listed apart in the source
[23] = AUC in beagle dog at 5 mg/kg, po measured for 24 hrs by LC-MS/MS analysis; type: ADME, organism-based, Canis lupus familiaris; parameters: time 24 hrs, dose 5 mg/kg, route po; conditions: in vivo
[24] = molecular target: Serine/threonine-protein kinase Chk1 (Homo sapiens) (UniProt O14757); assay: Inhibition of human CHK1 assessed as residual activity at 30 uM relative to control
Sequence of Serine/threonine-protein kinase Chk1 (Homo sapiens) (O14757 whole entry, the tested form may be a part): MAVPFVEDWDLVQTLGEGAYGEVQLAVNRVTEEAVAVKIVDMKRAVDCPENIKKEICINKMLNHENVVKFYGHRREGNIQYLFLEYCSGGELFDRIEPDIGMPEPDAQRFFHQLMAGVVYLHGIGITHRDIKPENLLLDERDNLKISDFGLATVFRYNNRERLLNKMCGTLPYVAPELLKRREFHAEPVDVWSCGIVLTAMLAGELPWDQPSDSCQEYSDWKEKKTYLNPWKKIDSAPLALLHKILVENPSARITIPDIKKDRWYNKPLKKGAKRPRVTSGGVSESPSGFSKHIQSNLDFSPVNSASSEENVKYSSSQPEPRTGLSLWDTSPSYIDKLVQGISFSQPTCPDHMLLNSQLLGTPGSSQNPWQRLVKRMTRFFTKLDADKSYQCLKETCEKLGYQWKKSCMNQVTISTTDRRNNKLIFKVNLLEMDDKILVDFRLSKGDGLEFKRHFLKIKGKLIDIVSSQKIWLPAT

[25] = molecular target: Proto-oncogene tyrosine-protein kinase Src (Homo sapiens) (UniProt P12931); assay: Inhibition of human Src (1 to 530 residues) assessed as residual activity at 30 uM relative to control
[26] = molecular target: Serine/threonine-protein kinase mTOR (Homo sapiens) (UniProt P42345); assay: Inhibition of human mTOR assessed as residual activity at 30 uM relative to control
Rattus norvegicus [27] = assay: Antiarthritic activity in adjuvant-induced arthritis rat model assessed as clinical score at 30 mg/kg, po administered twice a day for 14 days starting from day 13 to 27 post immunization and measured every 3 days a week; type: functional; conditions: time 14 day
Rattus norvegicus [28] = assay: Antiarthritic activity in adjuvant-induced arthritis rat model assessed as clinical score at 10 mg/kg, po administered twice a day for 14 days starting from day 13 to 27 post immunization and measured every 3 days a week; type: functional; conditions: time 14 day
[29] = molecular target: Receptor-type tyrosine-protein kinase FLT3 (Homo sapiens) (UniProt P36888); assay: Inhibition of human FLT3 assessed as residual activity at 30 uM relative to control
[30] = Clearance in Sprague-Dawley rat at 1 mg/kg, iv measured for 24 hrs by LC-MS/MS analysis; type: ADME, organism-based; conditions: in vivo
[31] = molecular target: MAP kinase-activated protein kinase 2 (Homo sapiens) (UniProt P49137); assay: Inhibition of human MAPKAPK2 assessed as residual activity at 30 uM relative to control
Sequence of MAP kinase-activated protein kinase 2 (Homo sapiens) (P49137 whole entry, looked up): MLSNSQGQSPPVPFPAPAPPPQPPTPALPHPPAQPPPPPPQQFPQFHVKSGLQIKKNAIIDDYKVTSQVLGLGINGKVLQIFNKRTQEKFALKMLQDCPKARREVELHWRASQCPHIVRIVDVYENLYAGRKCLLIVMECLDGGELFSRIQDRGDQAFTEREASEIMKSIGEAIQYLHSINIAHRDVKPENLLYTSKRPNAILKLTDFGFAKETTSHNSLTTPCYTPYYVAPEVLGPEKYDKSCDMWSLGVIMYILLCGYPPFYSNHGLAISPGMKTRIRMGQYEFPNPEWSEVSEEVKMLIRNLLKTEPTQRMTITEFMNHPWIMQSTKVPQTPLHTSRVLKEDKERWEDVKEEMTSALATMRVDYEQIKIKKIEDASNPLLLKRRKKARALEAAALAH

Rattus norvegicus [32] = assay: Antiarthritic activity in adjuvant-induced arthritis rat model assessed as recovery of body weight at 1 to 30 mg/kg, po administered twice a day for 14 days starting from day 13 to 27 post immunization and measured every 3 days a week; type: functional, organism-based; conditions: dose 1-30 mg/kg, time 14.0 day
[33] = molecular target: Interleukin-1 receptor-associated kinase 4 (Homo sapiens) (UniProt Q9NWZ3); assay: Inhibition of human IRAK4 assessed as residual activity at 30 uM relative to control
Sequence of Interleukin-1 receptor-associated kinase 4 (Homo sapiens) (Q9NWZ3 whole entry): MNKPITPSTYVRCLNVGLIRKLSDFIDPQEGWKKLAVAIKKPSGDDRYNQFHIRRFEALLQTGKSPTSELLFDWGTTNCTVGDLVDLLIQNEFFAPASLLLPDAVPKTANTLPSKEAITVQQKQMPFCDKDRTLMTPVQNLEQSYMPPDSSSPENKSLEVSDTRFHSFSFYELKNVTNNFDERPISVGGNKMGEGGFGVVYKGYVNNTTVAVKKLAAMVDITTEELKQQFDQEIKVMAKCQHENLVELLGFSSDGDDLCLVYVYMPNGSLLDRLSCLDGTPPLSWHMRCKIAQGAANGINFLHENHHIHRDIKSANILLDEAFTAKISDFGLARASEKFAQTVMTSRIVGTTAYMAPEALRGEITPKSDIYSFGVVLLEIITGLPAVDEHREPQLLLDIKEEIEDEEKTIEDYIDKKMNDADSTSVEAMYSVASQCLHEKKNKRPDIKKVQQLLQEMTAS

in vivo [34] = conditions: beagle, dog, po, 5 mg/kg
Rattus norvegicus [35] = assay: Antiarthritic activity in adjuvant-induced arthritis rat model assessed as reduction in paw volume at 1 mg/kg, po administered twice a day for 14 days starting from day 13 to 27 post immunization and measured every 3 days a week; type: functional; conditions: time 14 day
[36] = molecular target: Tyrosine-protein kinase Lck (Homo sapiens) (UniProt P06239); assay: Inhibition of human LCK assessed as residual activity at 30 uM relative to control

With `O=C(Nc1nc2cccc(C3CCC4(CC3)CCN(C(=O)[C@@H]3CC3(F)F)CC4)n2n1)C1CC1` the Activity (Mus musculus [1]) was “Active”, the AUC at 24 h [2] was 18 µM·h and the Activity (Mus musculus [3]) was 100%.
`O=C(Nc1nc2cccc([C@H]3CC[C@@H](NC(=O)[C@@H]4CC4(F)F)CC3)n2n1)C1CC1` gave an AUC at 24 h [2] of 54.1 µM·h.
For `O=C(Nc1nc2cccc(C3CCC4(CC3)CN(C(=O)[C@@H]3CC3(F)F)C4)n2n1)C1CC1`, the Activity [4] was 109%, the Activity [5] was 7.8% and the Activity [6] was 81%. It also gave an Activity [7] of 88%, an Activity [8] of 31% and an Activity [9] of 5.53%. The clearance [10] was 5.73 mL/min/kg, the Activity [11] was 102% and the Activity [12] was 94%. For the same compound, the Activity [13] was 93%, the inhibition in vivo at 15 mg/kg (Mus musculus [14]) was 59.9% and the Activity [15] was 95%. The Activity (Mus musculus [1]) was “Active”, the Activity [16] was 101% and the Activity [17] was 93%. The Activity [18] was 89%, the Activity (Homo sapiens) was 109% and the Activity [19] was 102%. It also gave an Activity [20] of 110%, a bioavailability at 24 h (in vivo [21]) of 121% and a Cmax at 24 h (in vivo [22]) of 4960 ng/mL. The AUC at 24 h [23] was 16700 ng·h/mL, the Activity [24] was 99% and the Activity [25] was 86%. The Activity [26] was 104%, the Activity (Rattus norvegicus [27]) was 2.7 and the Activity (Rattus norvegicus [28]) was 3.2. For the same compound, the Activity [29] was 34%, the clearance [30] was 10.5 mL/min/kg and the Activity [31] was 112%. For the same compound, the Activity (Rattus norvegicus [32]) was “Active”, the Activity [33] was 106% and the bioavailability at 24 h (in vivo [34]) was 106%. The Activity (Rattus norvegicus [35]) was 1.91 mL and the Activity [36] was 74%.
